# Measurements from patent US5316929A, “Process for the preparation of MA” (Hoechst Aktiengesellschaft, priority 1991, dated 1994).
# “Also recorded” adds a separate entry of the source.
# System: biosynthesis of the peptidoglycan framework of the bacterial cell wall
# Test: not given
# Conditions: cited from earlier work
row,Structure (SMILES),Inhibition of the biosynthesis of the peptidoglycan framework of the bacterial cell wall
1,C=C(C/C=C(\C)CCC=C(C)C)CCC(C)(C)/C=C/CC/C(C)=C/CO[C@@H](COP(=O)(O)O[C@H]1O[C@H](C(N)=O)[C@@](C)(O)[C@H](OC(N)=O)[C@H]1O[C@@H]1O[C@H](CO[C@@H]2O[C@H](CO)[C@@H](O)[C@H](O)[C@H]2O)[C@@H](O[C@@H]2O[C@H](C)[C@@H](O[C@@H]3O[C@H](C(=O)NC4=C(O)CCC4=O)[C@H](O)[C@H](O)[C@H]3O)[C@H](O)[C@H]2NC(C)=O)[C@H](O)[C@H]1NC(C)=O)C(=O)O [Moenomycin A],inhibits

# System: moenomycinase
# Test: Moenomycinase activity (cleavage of moenomycin A, TLC/UV analysis)
# Type: biochemical, Bacillus sp. DSM 4675
# Conditions: EDTA 10 mM in FIG. 1
# Description: Partially purified moenomycinase was dialyzed for 24 hours. The dialyzed moenomycinase was incubated with moenomycin A (6 mg/ml) in 100 mM potassium phosphate buffer, pH 8.0, for 31 hours with the addition of metal ions (0.5 or 1.0 mM, except K^+ =20 mM0 or EDTA (10 mM). Enzyme activity was measured by determining the amount of MC formed using TLC and UV analysis as described in Example 3. The TLC plates were scanned at a wavelength of 254 nm using a DESAGA Chromatogram Densitometer CD50. Enzyme activity is expressed relative to the activity of the dialyzed preparation ("Dial").
# FIG. 2. Activation of Moenomycinase by Cobalt. Purified moenomycinase was incubated with moenomycin A in the presence of the indicated concentrations of Co^++. Enzyme activity was measured by determining the amount of MB formed using TLC and UV analysis as described in FIG. 1.
# The molecular weight of moenomycinase is 230,000±10,000 Dalton. Moenomycinase has an optical pH of 8.0 to 8.5 and an optimal temperature of 45° to 55° C. Moenomycinase has a Km value of 4 to 10 mmolar based on moenomycin A as substrate.
row,Structure (SMILES),Inhibition of moenomycinase
1,"CC(=O)OCC1=C(C(=O)O)N2C(=O)[C@@H](N)[C@H]2SC1 [7-aminocephalosporin acid (7-ACA), 7-aminocephalosporin acid]",inhibited
2,CC(=O)OCC1=C(C(=O)O)N2C(=O)[C@@H](NC(=O)CCC[C@@H](N)C(=O)O)[C@H]2SC1 [Cephalosporin C],inhibited
3,O=C(O)CN(CCN(CC(=O)O)CC(=O)O)CC(=O)O [EDTA],inhibited
4,C=O [formalin],inhibited

# Same assay, conditions: metal ions 0.05-1.0 mM
row,Structure (SMILES),Activation of moenomycinase
1,[Ca+2] [Ca^++],activated
2,[Co+2] [Co^++],activated
3,[Mg+2] [Mg^++],activated
4,[Ni+2] [Ni^++],activated; also recorded: greatest activation
